For this test, the target named is human cGAS (residues 161-522) (Homo sapiens (Human), UniProt Q8N884). Kind of test: Malachite Green assay to measure cGAS activity (coupled enzymatic assay, phosphate detection). The class given is biochemical. The conditions noted are these: recombinant human cGAS (residues 161-522) 25 nM, 80 μM GTP, 100 nM ISD, 4 hour at RT, absorbance 620 nm. The procedure: Malachite Green Assay to Measure cGAS Activity Compounds were tested for cGAS inhibition in a coupled enzymatic assay based on Phosphate detection by Malachite Green. Final assay conditions were 20 mM TRIS pH 7.5 (Applichem), 5 mM MgCl2 (Sigma) and 0.01% BSA (Sigma) supplemented with […] (Sigma), 80 μM GTP (Sigma) and 100 nM Interferon Stimulating DNA (ISD) (Microsynth). Recombinantly expressed purified human cGAS (residues 161-522) was used at 25 nM. All compounds were prepared as 10 mM stock solutions in DMSO and a 16 pt dilution series in DMSO with a dilution factor of 2.5 was prepared. 1 μL of DMSO dilution series was transferred to 32.3 μL reaction buffer, mixed by pipetting up/down, spun for 1 minute at 3000 rpm and was visually inspected for precipitation. 5 μL of 3-fold enzyme stock solution were transferred to an empty 384-well Black/Clear Flat Bottom Polystyrene NBS (Corning) rows 3-24. Rows 1-2 were filled with assay buffer. Plates were spun 10 seconds at 1000 rpm (164×g). 5 μL of compound intermediate dilution was added and mixed by pipetting up/down to rows 3-24. Rows 1-2 were filled with 3.1% DMSO assay buffer. Plates were spun 10 seconds at 1000 rpm (164×g). 5 μL 3-fold Nucleotide/DNA mix was added to all wells to start the reaction. Plates were spun 10 seconds at 1000 rpm (164×g) and incubated for 4 hour at room temperature (RT) in the dark. 5 μL 4 U/mL PPase (Sigma) were added to all wells. Plates spun 10 seconds at 1000 rpm (164×g). 10 μL BioMol green Solution (Enzo Life Sciences) was added to all wells. Plates spun 10 seconds at 1000 rpm (164×g) and incubated 30 minutes at RT in the dark. Absorbance data was collected 620 nm on an EnVision Multilable Reader (Perkin Elmer) and the following measurement settings were used: excitation filter photometric was 620 nm; excitation from the top; measurement height was 1 mm; number of flashes was 30; number of flashes integrated was 1. All plates are checked for abnormalities and outliers in the Blank Control (no protein, row 1) and the Neutral Control (no compound, row 2) are excluded using the 3*SD rule. Data was normalized to 0 and 100% by Blank and Neutral Control and each curve was fitted and judged using the 4 parameter logistic equation to determine the IC50 for cGAS inhibition. Table 1 provides IC50 values (μM) for cGAS inhibition obtained for particular examples of the present invention as measured by the above-described assay.
human cGAS (residues 161-522), sequence (Q8N884 161-522): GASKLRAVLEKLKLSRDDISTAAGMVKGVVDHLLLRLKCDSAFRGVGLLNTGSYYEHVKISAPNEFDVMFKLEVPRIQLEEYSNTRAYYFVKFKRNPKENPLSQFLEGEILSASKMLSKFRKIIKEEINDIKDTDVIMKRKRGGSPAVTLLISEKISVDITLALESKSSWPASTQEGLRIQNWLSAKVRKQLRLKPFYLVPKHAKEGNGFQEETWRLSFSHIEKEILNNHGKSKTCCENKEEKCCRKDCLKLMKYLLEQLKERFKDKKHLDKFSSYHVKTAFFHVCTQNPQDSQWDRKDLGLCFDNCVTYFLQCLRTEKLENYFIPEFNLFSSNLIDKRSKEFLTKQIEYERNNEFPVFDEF

With `O=C(O)c1cc(-c2ccc(C(F)(F)F)cc2Cl)cc2[nH]cnc12` [Example 5, 6-(2-Chloro-4-(trifluoromethyl)phenyl)-1H-benzo[d]imidazole-4-carboxylic acid], the half-maximal inhibitory concentration (IC50) came to 3.26 µM.

In general, IC50 refers to the point on the concentration scale where inhibition reaches its midpoint.

Values taken from US20230348398A1 (Hoffmann-La Roche Inc., priority 2020, published 2023).
